The source of these data is US4547492A, “1-N-(ω-Amino-α-hydroxyalkanoyl-2',3'-dideoxykanamycin A and pharmaceutical composition containing same” (Zaidan Hojin Biseibutsu Kagaku Kenkyu Kai, priority 1983, dated 1985).

Series [1] has as its system Bacillus subtilis PCI 219. Description: MIC, serial dilution on nutrient agar. Format: cell-based. Particulars: PCI219, B. subtilis PCI 219, 37° C., 18 hours. The method, then: (§1) For comparison purpose, the minimum inhibitory concentrations (MIC.) of 1-N-(L-4-amino-2-hydroxybutyryl)-kanamycin A, namely amikacin and of 2',3'-dideoxykanamycin A (abbreviated as DKA) are also shown in Table 1.
(§2) The minimum inhibitory concentrations (mcg/ml) of these kanamycin A derivatives against the various bacteria were determined according to a standard serial dilution method on a nutrient agar medium at 37° C., the estimation being made after 18 hours incubation.

For another series, the system named is Escherichia coli ML 1629. Kind of series: MIC, serial dilution on nutrient agar. The format is cell-based. The method, then: as §1, §2
For a further series, the system named is Escherichia coli ML 1630. Kind of series: MIC, serial dilution on nutrient agar. The format is cell-based. The conditions noted are these: ML1630, E. coli ML 1630, 37° C., 18 hours. How it is done:
as §1, §2

For the next series, the system named is Escherichia coli ML R 81. Kind of series: MIC, serial dilution on nutrient agar. The format is cell-based. How it is done: as §1, §2
In a further series the test system is Proteus rettgeri GN 311. Description: MIC, serial dilution on nutrient agar. The format is cell-based. Particulars: Providencia rettgeri, GN311, 37° C., 18 hours. The method, then:
as §1, §2

Series [2] has as its system Pseudomonas aeruginosa A3. Kind of series: MIC, serial dilution on nutrient agar. Format: cell-based. The conditions noted are these: P. aeruginosa A3, 37° C., 18 hours. The method, then:
as §1, §2

Series [3] relates to Pseudomonas aeruginosa B-13. Description: MIC, serial dilution on nutrient agar. Format: cell-based. The method, then:
as §1, §2

The test system of series [4] is Pseudomonas aeruginosa H9. Kind of series: MIC, serial dilution on nutrient agar. Format: cell-based. The method, then:
as §1, §2

Series [5] deals with Pseudomonas aeruginosa K-Ps 102. Kind of series: MIC, serial dilution on nutrient agar. The format is cell-based. The method, then: as §1, §2
The subject of series [6] is Serratia marcescens I-0111. Kind of series: MIC, serial dilution on nutrient agar. The format is cell-based. How it is done: as §1, §2
For series [7], the system named is Serratia marcescens I-0115. Kind of series: MIC, serial dilution on nutrient agar. Format: cell-based. How it is done:
as §1, §2

Series [8] relates to Serratia marcescens I-0139. Description: MIC, serial dilution on nutrient agar. The conditions noted are these: I0139, S. marcescens I-0139, 37° C., 18 hours. The format is cell-based. How it is done:
as §1, §2

For series [9], the system named is Serratia marcescens I-0162. Description: MIC, serial dilution on nutrient agar. The format is cell-based. How it is done: as §1, §2
For the next series, the system named is Serratia sp. 4. Description: MIC, serial dilution on nutrient agar. The format is cell-based. Particulars: 37° C., 18 hours. The method, then:
as §1, §2

Series [10] relates to Staphylococcus aureus 209P. Description: MIC, serial dilution on nutrient agar. The format is cell-based. Particulars: S. aureus 209P, 37° C., 18 hours. How it is done: as §1, §2
Series [11] relates to Staphylococcus aureus Ap 01. Description: MIC, serial dilution on nutrient agar. Format: cell-based. The method, then: as §1, §2
The test system of a further series is Escherichia coli J5R11-2. Kind of series: microbe, parasite or virus in culture. Particulars: J5R112, 18 h. The method, then: as §1, §2
Series [12] in a line: acute toxicity by intravenous injection in mice. The conditions noted are these: mouse, in vivo.
The mark [13] stands for this setting: P. aeruginosa H9, nutrient agar, 37° C., 18 hours, read-out: MIC.
Setting [14] is: I0111, S. marcescens I-0111, nutrient agar, 37° C., 18 hours, read-out: MIC.
Setting [15] is: I0115, S. marcescens I-0115, nutrient agar, 37° C., 18 hours, read-out: MIC.
The mark [16] stands for this setting: ML1629, E. coli ML 1629, nutrient agar, 37° C., 18 hours, read-out: MIC.
[17] abbreviates: MLR81, E. coli ML R 81, nutrient agar, 37° C., 18 hours, read-out: MIC.
Setting [18] is: AP01, S. aureus Ap 01, nutrient agar, 37° C., 18 hours, read-out: MIC.

Converted amounts (≈) assume the structure as drawn. Like-named read-outs stand apart in the source and are kept apart here.

As a reminder, the LD50 is the dose expected to kill half of the subjects tested. Higher therefore signals lower toxicity.

`NCC[C@H](O)C(=O)N[C@@H]1C[C@H](N)[C@@H](O[C@H]2O[C@H](CN)[C@@H](O)[C@H](O)[C@H]2O)[C@H](O)[C@H]1O[C@H]1O[C@H](CO)[C@@H](O)[C@H](N)[C@H]1O` [Amikacin, 1-N-(L-4-amino-2-hydroxybutyryl)-kanamycin A, reference compound]: the MIC in series [1] was 0.39 mg/L (≈ 0.666 µM); against Escherichia coli ML 1629 (ML1629, 18 h), 1.56 mg/L (≈ 2.66 µM); in the series on Escherichia coli ML 1630, 3.13 mg/L (≈ 5.34 µM); against Escherichia coli ML R 81 (MLR81, 18 h) it was 1.56 mg/L (≈ 2.66 µM); against Proteus rettgeri GN 311 it was 0.39 mg/L (≈ 0.666 µM); in series [2], under 0.2 mg/L. The MIC in series [3] (B13, P. aeruginosa B-13, nutrient agar, 37° C., 18 hours, read-out: MIC.) turned out to be 6.25 mg/L (≈ 10.7 µM); in series [4] (setting [13]), 6.25 mg/L (≈ 10.7 µM); in series [5] (KPS102, P. aeruginosa K-Ps 102, nutrient agar, 37° C., 18 hours, read-out: MIC.), 6.25 mg/L (≈ 10.7 µM); in [6] (setting [14]), 25 mg/L (≈ 42.7 µM); in [7] (setting [15]), 50 mg/L (≈ 85.4 µM); in [8], 100 mg/L (≈ 171 µM). In addition, the MIC in [9] (I0162, S. marcescens I-0162, nutrient agar, 37° C., 18 hours, read-out: MIC.) came to 50 mg/L (≈ 85.4 µM); against Serratia sp. 4, 3.13 mg/L (≈ 5.34 µM); in series [10], 0.78 mg/L (≈ 1.33 µM); in series [11] (AP01, 18 h), 1.56 mg/L (≈ 2.66 µM); against Escherichia coli J5R11-2, 1.56 mg/L (≈ 2.66 µM).

Turning to `NC[C@H](O)C(=O)N[C@@H]1C[C@H](N)[C@@H](O[C@@H]2CC[C@H](O)[C@@H](CN)O2)[C@H](O)[C@H]1O[C@H]1O[C@H](CO)[C@@H](O)[C@H](N)[C@H]1O` [ISDK, 1-N-(L-3-amino-2-hydroxy-propionyl)-2',3'-dideoxykanamycin A], the MIC in series [1] was determined as 0.39 mg/L (≈ 0.723 µM); with Escherichia coli ML 1629 (setting [16]) it was 1.56 mg/L (≈ 2.89 µM); in the series with Escherichia coli ML 1630, 3.13 mg/L (≈ 5.8 µM); in the series on Escherichia coli ML R 81 (setting [17]) it was 1.56 mg/L (≈ 2.89 µM); against Proteus rettgeri GN 311, 0.39 mg/L (≈ 0.723 µM); in series [2], 0.78 mg/L (≈ 1.45 µM). The MIC was determined as 12.5 mg/L (≈ 23.2 µM) in series [3] (B13, 18 h); 3.13 mg/L (≈ 5.8 µM) in series [4] (setting [13]); 6.25 mg/L (≈ 11.6 µM) in series [5] (KPS102, 18 h); 3.13 mg/L (≈ 5.8 µM) in series [6] (setting [14]); 3.13 mg/L (≈ 5.8 µM) in [7] (setting [15]); 6.25 mg/L (≈ 11.6 µM) in [8]. Also, the MIC in series [9] (I0162, 18 h) amounted to 6.25 mg/L (≈ 11.6 µM); in the series on Serratia sp. 4 it was 1.56 mg/L (≈ 2.89 µM); in series [10] it was 0.2 mg/L (≈ 0.371 µM); in series [11] (setting [18]), 0.78 mg/L (≈ 1.45 µM); against Escherichia coli J5R11-2, 0.78 mg/L (≈ 1.45 µM). The same compound yielded a median lethal dose (LD50) in series [12] of 240 mg/kg.

Take `NC[C@H]1O[C@H](O[C@H]2[C@H](O)[C@@H](O[C@H]3O[C@H](CO)[C@@H](O)[C@H](N)[C@H]3O)[C@H](N)C[C@@H]2N)CC[C@@H]1O` [DKA, 2',3'-dideoxykanamycin A]: the MIC in series [1] worked out at 0.39 mg/L (≈ 0.862 µM); with Escherichia coli ML 1629 (setting [16]), 1.56 mg/L (≈ 3.45 µM); with Escherichia coli ML 1630, 3.13 mg/L (≈ 6.92 µM); in the series with Escherichia coli ML R 81 (setting [17]), 3.13 mg/L (≈ 6.92 µM); in series [2], 1.56 mg/L (≈ 3.45 µM); in series [3] (B13, 18 h) it was 12.5 mg/L (≈ 27.6 µM). In addition, the MIC was determined as 6.25 mg/L (≈ 13.8 µM) in series [4] (H9, 18 h); 6.25 mg/L (≈ 13.8 µM) in [5] (KPS102, 18 h); 1.56 mg/L (≈ 3.45 µM) in [10]; 3.13 mg/L (≈ 6.92 µM) in series [11] (setting [18]); 3.12 mg/L (≈ 6.89 µM) against Escherichia coli J5R11-2.

As to `NCC[C@H](O)C(=O)N[C@@H]1C[C@H](N)[C@@H](O[C@@H]2CC[C@H](O)[C@@H](CN)O2)[C@H](O)[C@H]1O[C@H]1O[C@H](CO)[C@@H](O)[C@H](N)[C@H]1O` [AHDK], the MIC in series [1] was 0.2 mg/L (≈ 0.361 µM); in the series on Escherichia coli ML 1629 (setting [16]), 1.56 mg/L (≈ 2.82 µM); against Escherichia coli ML 1630, 1.56 mg/L (≈ 2.82 µM); with Escherichia coli ML R 81 (setting [17]), 1.56 mg/L (≈ 2.82 µM); in the series on Proteus rettgeri GN 311, 0.39 mg/L (≈ 0.704 µM); in series [2], 0.78 mg/L (≈ 1.41 µM). The MIC in series [3] (B13, 18 h) stood at 12.5 mg/L (≈ 22.6 µM); in [4] (setting [13]), 3.13 mg/L (≈ 5.65 µM); in series [5] (KPS102, 18 h), 6.25 mg/L (≈ 11.3 µM); in [6] (I0111, 18 h), 6.25 mg/L (≈ 11.3 µM); in series [7] (I0115, 18 h), 6.25 mg/L (≈ 11.3 µM); in series [8], 12.5 mg/L (≈ 22.6 µM). Further, the MIC in series [9] (I0162, 18 h) was determined as 6.25 mg/L (≈ 11.3 µM); in the series with Serratia sp. 4, 1.56 mg/L (≈ 2.82 µM); in [10], 0.1 mg/L (≈ 0.181 µM); in [11] (setting [18]) it was 0.39 mg/L (≈ 0.704 µM); against Escherichia coli J5R11-2 it was 0.78 mg/L (≈ 1.41 µM). The same compound yielded an LD50 in [12] of 326 mg/kg.
